Source: paper PMC7282810, “Existence and functions of a kisspeptin neuropeptide signaling system in a non-chordate deuterostome species” (eLife, 2020)
“Also recorded” adds a separate entry of the source. *1 amine or outer side, *2 acyl side, *3 side chain or, on linkers, in order; H or OH if unused. Where a SMILES comes first, the peptide text is derived from it. Bridges are numbered along the chain shown (N, C = ends). [ ]: non-standard residue; d: D form. The star is where a group is joined. Leu(3R-OH,Nα-propionyl) = CCC(=O)N[C@H](C(=O)*)[C@H](O)C(C)C; X1 = CC(C)[C@@H](O[*:3])[C@H](N[*:1])C(=O)[*:2]; NMeT = CN[C@H](C(=O)O)[C@@H](C)O; dPhLac = O=C(O)[C@H](O)Cc1ccccc1; NMeA = CN[C@@H](C)C(=O)O; NMeDha = C=C(NC)C(=O)O

Assays:
Format in all cases: cell-based
[1] = target: T1, AjKissR1 (Apostichopus japonicus, UniProt A0A5B7LK60); test: cell-based; details: for Effect of inhibitor pre-treatment on AjKiss1a/AjKiss1b-elicited Ca2+ mobilization (in words): 100 nM AjKiss1a or AjKiss1b, pre-treated 12 hr PTX 100 ng/mL, or 1 hr FR900359 1.0 μM, U73122 10 μM, BAPTA-AM 100.0 μM, EGTA 5.0 mM; for Potency in triggering intracellular Ca2+ mobilization via AjKissR1 (in words): HEK293, Fura-2/AM, vertebrate kisspeptins and FITC-AjKiss1a at 1.0 μM
T1 sequence (A0A5B7LK60 1-378): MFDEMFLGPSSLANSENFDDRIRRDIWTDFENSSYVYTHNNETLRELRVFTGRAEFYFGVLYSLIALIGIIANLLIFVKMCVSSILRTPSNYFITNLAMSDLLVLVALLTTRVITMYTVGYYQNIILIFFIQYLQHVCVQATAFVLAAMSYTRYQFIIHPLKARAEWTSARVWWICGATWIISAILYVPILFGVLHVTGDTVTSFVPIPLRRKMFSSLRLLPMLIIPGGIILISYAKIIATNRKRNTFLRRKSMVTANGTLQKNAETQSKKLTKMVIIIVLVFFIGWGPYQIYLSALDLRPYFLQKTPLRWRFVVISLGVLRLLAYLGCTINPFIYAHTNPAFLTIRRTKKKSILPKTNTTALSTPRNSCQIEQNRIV
Description: (§1) The fluorescent Ca^2+ indicator Fura-2/AM was used to detect intracellular calcium flux ([Li et al., 2010]). Briefly, the HEK293 cells expressing the AjKissR1, AjKissR2 or vertebrate kisspeptin receptor were washed twice with PBS and suspended at 5 × 10^6 cells/mL in Hanks’ balanced salt solution. The cells were then loaded with 3.0 μM Fura-2/AM for 30 min and washed twice in Hanks’ solution. They were then stimulated with the indicated concentrations of different predicted A. japonicus kisspeptins or vertebrate kisspeptins. Finally, intracellular calcium flux was measured for 60 s, by determining the ratio of excitation wavelengths at 340 and 380 nm using a fluorescence spectrometer (Infinite 200 PRO, Tecan, Männedorf, Switzerland). All of the experiments for measuring Ca^2+ mobilization were repeated independently at least three times.

[2] = target: T2, AjKissR2 (Apostichopus japonicus, UniProt A0A5B7LIE4); test: cell-based; details: for Effect of inhibitor pre-treatment on AjKiss1a/AjKiss1b-elicited Ca2+ mobilization (in words): 100 nM AjKiss1a or AjKiss1b, pre-treated 12 hr PTX 100 ng/mL, or 1 hr FR900359 1.0 μM, U73122 10 μM, BAPTA-AM 100.0 μM, EGTA 5.0 mM; for Potency in triggering intracellular Ca2+ mobilization via AjKissR2 (in words): HEK293, Fura-2/AM, vertebrate kisspeptins and FITC-AjKiss1a at 1.0 μM
T2 sequence (A0A5B7LIE4 1-327): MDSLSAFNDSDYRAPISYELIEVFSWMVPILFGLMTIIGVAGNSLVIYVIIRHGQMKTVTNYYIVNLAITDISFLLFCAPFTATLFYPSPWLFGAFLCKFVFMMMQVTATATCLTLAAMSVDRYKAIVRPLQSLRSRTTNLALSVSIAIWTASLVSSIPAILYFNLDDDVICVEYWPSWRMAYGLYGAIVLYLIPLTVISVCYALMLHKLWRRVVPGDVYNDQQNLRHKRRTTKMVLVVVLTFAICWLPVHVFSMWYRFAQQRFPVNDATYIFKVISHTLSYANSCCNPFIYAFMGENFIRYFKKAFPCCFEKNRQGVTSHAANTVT
Description: as §1

[3] = target: T1, AjKissR1; test: ERK1/2 phosphorylation (western blot) in HEK293 cells expressing FLAG-AjKissR1; details: pre-treated 1 hr, U73122 10 μM, Gö6983 1.0 μM; AjKiss1b-10 1.0 μM
Description: (§2) To examine the phosphorylation of ERK, cells that expressed AjKissr1/2 or other GPR54s were incubated for the indicated times with different concentrations of kisspeptins. Subsequently, cells were lysed with lysis buffer (Beyotime) that contained protease inhibitor (Roche) at 4°C for 30 min on a rocker and then scraped. Proteins were then electrophoresed on a 10% SDS polyacrylamide gel and transferred to polyvinylidene difluoride (PVDF) membranes. Membranes were blocked with 5% skimmed milk, then probed with rabbit anti-phospho-ERK1/2(Thr^202/Tyr^204) antibody (1:2000; Cell Signaling Technology), followed by detection using HRP-conjugated goat anti-rabbit IgG (Beyotime). Blots were stripped and reprobed using anti-ERK1/2 antibody (1:2000; Cell Signaling Technology) as a control for protein loading.
(§3) Immunoreactive bands were detected with an enhanced chemiluminescent substrate (Beyotime), and the membrane was scanned using a Tanon 5200 Chemiluminescent Imaging System (Tanon Science and Technology, Shanghai, China).

[4] = target: T2, AjKissR2; test: ERK1/2 phosphorylation (western blot) in HEK293 cells expressing FLAG-AjKissR2; details: pre-treated 1 hr, U73122 10 μM, Gö6983 1.0 μM; AjKiss1b-10 1.0 μM
Description: as §2, §3

| Molecule | Effect of inhibitor pre-treatment on AjKiss1a/AjKiss1b-elicited Ca2+ mobilization (in words) [1] | Effect of inhibitor pre-treatment on AjKiss1a/AjKiss1b-elicited Ca2+ mobilization (in words) [2] | Effect of inhibitor on AjKiss1b-10-activated ERK1/2 phosphorylation (in words) [3] | Effect of inhibitor on AjKiss1b-10-activated ERK1/2 phosphorylation (in words) [4] | Potency in triggering intracellular Ca2+ mobilization via AjKissR1 (in words) [1] | Potency in triggering intracellular Ca2+ mobilization via AjKissR2 (in words) [2] |
| --- | --- | --- | --- | --- | --- | --- |
| CC(=O)OCOC(=O)CN(CC(=O)OCOC(C)=O)c1ccccc1OCCOc1ccccc1N(CC(=O)OCOC(C)=O)CC(=O)OCOC(C)=O [BAPTA-AM, 1,2-bis(o-aminophenoxy)ethane N,N,N',N'-tetraacetic acid acetoxymethyl ester, reference compound] | significantly attenuated | significantly attenuated | – | – | – | – |
| O=C(O)CN(CCOCCOCCN(CC(=O)O)CC(=O)O)CC(=O)O [EGTA, reference compound] | significantly attenuated | significantly attenuated | – | – | – | – |
| C=C1C(=O)N[C@@H](C)C(=O)N(C)[C@@H](C)C(=O)N[C@@H]([C@H](OC(=O)[C@@H](NC(=O)CC)[C@H](O)C(C)C)C(C)C)C(=O)N(C)[C@@H]([C@@H](C)OC)C(=O)O[C@H](C(C)C)[C@H](NC(C)=O)C(=O)O[C@H](Cc2ccccc2)C(=O)N1C [FR900359, reference compound] (Ac-[X1][dPhLac][NMeDha]A[NMeA][X1](Leu(3R-OH,Nα-propionyl))[NMeT](Me); ester 1-C) | completely blocked | completely blocked | – | – | – | – |
| COc1ccc2c(c1)c(C1=C(c3c[nH]c4ccccc34)C(=O)NC1=O)cn2CCCN(C)C [Gö6983] | – | – | significantly blocked | significantly blocked | – | – |
| COc1ccc2c(c1)CC[C@@H]1[C@@H]2CC[C@]2(C)[C@@H](NCCCCCCN3C(=O)C=CC3=O)CC[C@@H]12 [U73122, reference compound] | significantly attenuated | significantly attenuated | significantly blocked | significantly blocked | – | – |
| AHYRTLPF-NH2 [AjKiss1a-10, truncated peptide of AjKiss1a] | – | – | – | – | failed to activate | failed to activate |
| FITC–AGSLDc < CLEASC > EDVERRGRQPNRNAHYRTLPF-NH2 (disulfide) [FITC–AjKiss1a] | – | – | – | – | comparable to that induced by the wild-type neuropeptide | comparable to that induced by the wild-type neuropeptide |
| FNYNPFGLRF-NH2 [DrKiss2-10, synthetic zebrafish kisspeptin decapeptide, reference compound] | – | – | – | – | much lower potency; also recorded: potent | higher potency than that of HsKiss1-10; also recorded: potent |
